{"source": "ChEMBL document CHEMBL1140465", "about": "“The design and preliminary structure-activity relationship studies of benzotriazines as potent inhibitors of Abl and Abl-T315I enzymes” (Bioorg Med Chem Lett, 2007)", "key": {"Bcr-Abl [1]": {"system": "Bcr-Abl", "assay": "Apoptosis inducing activity in Bcr-Abl cells assessed as caspase 3 activation after 4 hrs", "format": "functional, cell-based", "settings": "Homo sapiens"}, "BaF3 [2]": {"system": "BaF3", "assay": "Blockade of Bcr-Abl-T315I mutant expressed in mouse Ba/F3 cells assessed as inhibition of […] phosphorylation", "format": "cell-based", "settings": "Homo sapiens"}, "BaF3 [3]": {"system": "BaF3", "assay": "Apoptosis inducing activity in Ba/F3 cells assessed as caspase 3 activation after 4 hrs", "format": "functional, cell-based", "settings": "Mus musculus"}, "BaF3 [4]": {"system": "BaF3", "assay": "Blockade of full length human Bcr-Abl expressed in mouse Ba/F3 cells assessed as inhibition of STAT5 phosphorylation", "format": "cell-based"}, "Homo sapiens [5]": {"organism": "Homo sapiens", "assay": "Apoptosis inducing activity in Bcr-Abl-T315I cells assessed as induction of DNA fragmentation at 2 uM after 24 hrs", "format": "functional, cell-based"}, "BaF3 [6]": {"system": "BaF3", "assay": "Apoptosis inducing activity in Ba/F3 cells assessed as induction of DNA fragmentation at 2 uM after 24 hrs", "format": "functional, cell-based", "settings": "Mus musculus"}, "Bcr-Abl [7]": {"system": "Bcr-Abl", "assay": "Apoptosis inducing activity in Bcr-Abl cells assessed as induction of DNA fragmentation at 2 uM after 24 hrs", "format": "functional, cell-based", "settings": "Homo sapiens"}, "Homo sapiens [8]": {"organism": "Homo sapiens", "assay": "Apoptosis inducing effect in Bcr-Abl-T315I cells assessed as caspase 3 activation after 4 hrs", "format": "functional, cell-based"}, "[9]": {"target": "Tyrosine-protein kinase ABL1 (Homo sapiens, UniProt P00519, T315I)", "assay": "Inhibition of Abl-T315I mutant"}, "[10]": {"target": "Tyrosine-protein kinase ABL1 (Homo sapiens, UniProt P00519)"}, "[11]": {"target": "Proto-oncogene tyrosine-protein kinase Src (Homo sapiens, UniProt P12931)", "sequence (P12931 2-536 limits assumed)": "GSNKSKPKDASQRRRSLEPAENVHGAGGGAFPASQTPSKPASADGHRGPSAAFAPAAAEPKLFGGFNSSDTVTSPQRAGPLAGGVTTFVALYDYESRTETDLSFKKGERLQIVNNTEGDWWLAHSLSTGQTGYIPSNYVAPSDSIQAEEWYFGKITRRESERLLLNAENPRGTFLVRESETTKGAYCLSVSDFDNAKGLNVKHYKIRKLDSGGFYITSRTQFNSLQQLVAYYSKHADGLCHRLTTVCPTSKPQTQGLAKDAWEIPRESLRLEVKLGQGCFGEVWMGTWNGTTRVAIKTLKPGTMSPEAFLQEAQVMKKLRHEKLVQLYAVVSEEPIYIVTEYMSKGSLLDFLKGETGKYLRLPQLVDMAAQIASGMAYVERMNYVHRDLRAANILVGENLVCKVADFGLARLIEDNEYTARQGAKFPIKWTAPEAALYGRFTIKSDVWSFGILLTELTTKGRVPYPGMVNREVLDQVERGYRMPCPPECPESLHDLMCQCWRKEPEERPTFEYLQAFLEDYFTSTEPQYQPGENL", "assay": "Inhibition of Src"}}, "note": "Active and inactive are the calls of the source. No cut-off for these calls is given here.", "data": [{"smiles": "Cc1cc(-c2cc(O)ccc2Cl)cc2nnc(Nc3ccc(S(=O)(=O)NCCN4CCCC4)cc3)nc12", "values": [{"measurement": "Activity", "setting": "Bcr-Abl [1]", "value": "Active"}, {"measurement": "Activity", "setting": "BaF3 [2]", "value": "Active"}, {"measurement": "Activity", "setting": "BaF3 [3]", "value": "inactive"}, {"measurement": "Activity", "setting": "BaF3 [4]", "value": "Active"}, {"measurement": "Activity", "setting": "Homo sapiens [5]", "value": "Active"}, {"measurement": "Activity", "setting": "BaF3 [6]", "value": "inactive"}, {"measurement": "Activity", "setting": "Bcr-Abl [7]", "value": "Active"}, {"measurement": "Activity", "setting": "Homo sapiens [8]", "value": "Active"}]}, {"smiles": "Cc1cccc(C)c1-c1cc(C)c2nc(Nc3ccc(OCCN4CCCC4)cc3)nnc2c1", "values": [{"measurement": "Ki", "setting": "[9]", "value": 4.24, "unit": "µM"}, {"measurement": "Ki", "setting": "[10]", "value": 0.011, "unit": "µM"}]}, {"smiles": "Cc1cc(-c2cc(O)ccc2Cl)cc2nnc(Nc3ccc(OCCN4CCCC4)cc3)nc12", "values": [{"measurement": "Ki", "setting": "[11]", "value": 0.0013, "unit": "µM"}]}]}
